Patent US20190183910A1, “ENHANCING DNA REPAIR AND PREVENTING AGING AND ITS CONSEQUENCES IN REPRODUCTIVE AND OTHER CELLS” (NEW YORK MEDICAL COLLEGE, priority 2016, published 2019)

Assays:
ATM = test: qRT-PCR DNA DSB repair gene expression in mouse sperm lysates, ATM; assay type: cell-based
Experimental: (§1) Treatment was performed with genotoxic stress (1 mM H2O2), S1P (200 μM), and S1P with genotoxic stress and control in culture for one hour. Also, the use of an ATM inhibitor was utilized (10 μM) (KU-55593, Abcam) (Li et al., 2014). We assessed DNA damage, apoptosis, and chromatin integrity. We also studied the DNA DSB repair gene expression by qRT-PCR in sperm lysates.
(§2) Sperm pellets previously snap-frozen in PBS were thawed. RNA was extracted using the trizol method (Rio et al., 2010). The quality and quantity of the RNA were measured with NanoDrop 2000 from Thermo Scientific. RNA (2 μg) from each sample was taken for reverse transcription with dTVN and N9 primers and SuperScript III reverse transcriptase, all procured from Invitrogen. The resulting cDNA was used to perform real-time qPCR with SYBR Green on an Applied Biosystems 7900HT Real-Time PCR machine was used. To determine the relative expression of various DNA repair genes in mouse sperm, we used the ΔΔCt method, which makes use of the expression of housekeeping genes. GAPDH was used as housekeeping gene. Primers were procured from Integrated DNA technologies (IDT) (Table 3).

MRE11 = test: qRT-PCR DNA DSB repair gene expression in mouse sperm lysates, MRE11; assay type: cell-based
Experimental: as §1, §2

mouse sperm = test: Alkaline comet assay on mouse sperm; assay type: cell-based; details: for percent tail DNA, alkaline comet: mouse sperm, n=9, mean±SEM
Experimental: as §1
Slides were prepared 48 hours prior to experimentation by coating normal glass microscope slides with 500 μl normal melting point agar (0.5% w/v in PBS) solution and left to dry at room temperature for no less than 48 hours. Then, 10 μl of mouse sperm suspension was mixed with 90 μl of 0.5% LMPA. Then this 100 μl solution was added to the NMPA-coated slides. Coverslips were added and slides were placed on a metallic tray on ice and in the dark for 5 minutes. The cover slips were removed and a 90 μl layer of LMPA was added. Cover slips were subsequently replaced before the LMPA hardened. Slides were then kept in the dark on ice again for another 5 minutes. After ten minutes, the cover slips were removed and slides were placed in staining jars containing ice cold lysing solution (2.5 M NaCl, 200 mM NaOH, 100 mM EDTA, 10 mM Trizma Base, 1% Triton X-100 and 10% DMSO [pH 10]) for 1.5 hours at 4° C. in a dark place.
After this lysis step, the slides were washed three times for 5 minutes with TE buffer (pH 8.0), and then placed flatly in the electrophoresis tank face up for 30 minutes to achieve the unwinding of the DNA. The alkaline electrophoresis buffer in this tank included 300 mM NaOH and 1 mM EDTA [pH13]. This incubation period was used to achieve the alkaline unwinding of the DNA. Electrophoresis was then performed at 25 V, 300 mA for 30 minutes. After this, slides were washed twice in neutralization buffer (0.4 M Tris, pH 7.5) for 5 minutes each. Before analysis could occur, the sperm within the slides needed to be fixed by draining the slides well on paper towels and then subjecting them to two 10 minute washes in ethanol, and then air drying at room temperature for 5 minutes. Ethidium bromide (50 μl at 10 μg/ml in water) was then added on the slide, and sealed with a cover slip. Slides were kept moist, wrapped in aluminum foil to prevent light exposure, and stored at 4° C. until analysis (Williams et al., 2014).
Slides from both alkaline and neutral comets were imaged by fluorescence microscopy using a Nikon OPTIPHOT microscope. ImageJ was used for comet assay analysis, which calculated tail length, tail moment, and % of DNA in the tail. […] To analyze the slides, an oval around the sperm head was drawn and calculated and then an oval around the sperm tail was drawn and calculated. […] It was calculated as the Pythagorean distance between two points. […]

oocytes = details: ex vivo (Morita et al., 2000; Tilly and Kolesnick, 2007); cited from earlier work
[1] = S1P treatment, no ATM inhibitor

CCCCCCCCCCCCC/C=C/[C@@H](O)[C@@H](N)COP(=O)(O)O [S1P, sphingosine 1 phosphate]
ATM expression (qRT-PCR) (ATM; [1]): no significant difference | ATM gene expression (qRT-PCR) (ATM; S1P with genotoxic stress, with ATM inhibitor, n=8, mean±SEM): 0.042±0.011 | MRE11 expression (qRT-PCR) (MRE11; S1P treatment with ATM inhibitor): no significant difference | MRE11 expression (qRT-PCR) (MRE11; [1]): no significant difference | DNA damage, alkaline comet (mouse sperm; S1P-treated mouse sperm with ATM inhibitor): no significant difference | percent tail DNA, alkaline comet (mouse sperm; S1P alone, without ATM inhibitor): 16.79±0.89% | percent tail DNA, alkaline comet (mouse sperm; S1P with H2O2, without ATM inhibitor): 16.8±0.87% | ceramide induced apoptosis in oocytes (oocytes): block ceramide induced apoptosis
